Data published in patent publication US12281108B2, “Pyrrolidinone derivatives as formyl peptide 2 receptor agonists” (BRISTOL-MYERS SQUIBB COMPANY, priority 2018, dated 2025).

Biological target: T1, human FPR2 receptors (Homo sapiens, UniProt P25090)
T1 sequence (P25090 1-351): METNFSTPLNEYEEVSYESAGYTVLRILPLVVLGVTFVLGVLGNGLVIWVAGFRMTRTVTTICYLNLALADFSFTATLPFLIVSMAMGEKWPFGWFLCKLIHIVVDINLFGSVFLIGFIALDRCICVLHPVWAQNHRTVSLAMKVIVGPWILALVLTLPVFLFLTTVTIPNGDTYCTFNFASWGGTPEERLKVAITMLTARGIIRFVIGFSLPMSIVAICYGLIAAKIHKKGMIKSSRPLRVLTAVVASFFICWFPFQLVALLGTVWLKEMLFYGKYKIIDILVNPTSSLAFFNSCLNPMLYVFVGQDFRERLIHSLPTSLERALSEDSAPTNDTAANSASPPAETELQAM
Assay: FPR2 cAMP assay in CHO cells overexpressing human FPR2 (HTRF)
Type: cell-based
Conditions: CHO cells overexpressing human FPR2; forskolin 5 μM; inhibition of cAMP production; read-out: hFPR2 cAMP2 EC50
Excerpt: N-formyl peptide receptors (FPRs) are a family of chemo attractant receptors that facilitate leukocyte response during inflammation. FPRs belong to the seven-transmembrane G protein-coupled receptor superfamily and are linked to inhibitory G-proteins (Gi). Three family members (FPR1, FPR2 and FPR3) have been identified in humans and are predominantly found in myeloid cells with varied distribution and have also been reported in multiple organs and tissues. After agonist binding, the FPRs activate a multitude of physiological pathways, such as intra cellular signaling transduction, Ca^2+ mobilization and transcription. The family interacts with a diverse set of ligands that includes proteins, polypeptides and fatty acid metabolites which activate both pro-inflammatory and pro-resolution downstream responses. FPR2 and FPR1 Cyclic Adenosine Monophosphate (cAMP) Assays were used to measure the in vitro activity of the compounds disclosed in this application.
FPR2 and FPR1 Cyclic Adenosine Monophosphate (cAMP) Assays. A mixture of forskolin (5 μM final for FPR2 or 10 μM final for FPR1) and IBMX (200 μM final) were added to 384-well Proxiplates (Perkin-Elmer) pre-dotted with test compounds in DMSO (1% final) at final concentrations in the range of 0.020 nM to 100 μM. Chinese Hamster Ovary cells (CHO) overexpressing human FPR1 or human FPR2 receptors were cultured in F-12 (Ham's) medium supplemented with 10% qualified FBS, 250 μg/ml zeocin and 300 μg/ml hygromycin (Life Technologies). Reactions were initiated by adding 2,000 human FPR2 cells per well or 4,000 human FPR1 cells per well in Dulbecco's PBS (with calcium and magnesium) (Life Technologies) supplemented with 0.1% BSA (Perkin-Elmer). The reaction mixtures were incubated for 30 min at room temperature. The level of intracellular cAMP was determined using the HTRF HiRange cAMP assay reagent kit (Cisbio) according to manufacturer's instruction. Solutions of cryptate conjugated anti-cAMP and d2 flurorophore-labelled cAMP were made in a supplied lysis buffer separately. Upon completion of the reaction, the cells were lysed with equal volume of the d2-cAMP solution and anti-cAMP solution. After a 1-h room temperature incubation, time-resolved fluorescence intensity was measured using the Envision (Perkin-Elmer) at 400 nm excitation and dual emission at 590 nm and 665 nm. A calibration curve was constructed with an external cAMP standard at concentrations ranging from 1 μM to 0.1 pM by plotting the fluorescent intensity ratio from 665 nm emission to the intensity from the 590 nm emission against cAMP concentrations. The potency and activity of a compound to inhibit cAMP production was then determined by fitting to a 4-parametric logistic equation from a plot of cAMP level versus compound concentrations.

Question: How did the EC50 turn out when COc1cc(F)c([C@@H]2CNC(=O)[C@H]2Nc2cc(-c3ccc(Cl)cc3)on2)c(F)c1 [Example 21, (3S,4R)-3-{[5-(4-chlorophenyl)-1,2-oxazol-3-yl]amino}-4-(2,6-difluoro-4-methoxyphenyl)pyrrolidin-2-one] was run?
Answer: 10 nM

Same assay, conditions: hFPR2 assay; potency bins; read-out: hFPR2 agonist activity EC50

Question: How did the EC50 turn out when COc1cc(F)c([C@@H]2CNC(=O)[C@H]2Nc2nc3ccc(Cl)cc3o2)c(F)c1 [Example 1, (3S,4R)-3-[(6-chloro-1,3-benzoxazol-2-yl)amino]-4-(2,6-difluoro-4-methoxyphenyl)pyrrolidin-2-one] was run?
Answer: 150 to 1000 nM

Question: For COc1cc(F)c([C@@H]2CNC(=O)[C@H]2Nc2nnc(-c3ccc(Cl)cc3)s2)c(F)c1 [Example 2, (3S,4R)-3-{[5-(4-chlorophenyl)-1,3,4-thiadiazol-2-yl]amino}-4-(2,6-difluoro-4-methoxyphenyl)pyrrolidin-2-one], which EC50 is on record?
Answer: ≤ 40 nM

Question: How did the EC50 turn out when COc1cc(F)c([C@@H]2CNC(=O)[C@H]2Nc2nnc(-c3ccc(Cl)cc3)o2)c(F)c1 [Example 3, (3S,4R)-3-{[5-(4-chlorophenyl)-1,3,4-oxadiazol-2-yl]amino}-4-(2,6-difluoro-4-methoxyphenyl)pyrrolidin-2-one] was run?
Answer: ≤ 40 nM

Question: COc1cc(F)c([C@@H]2CNC(=O)[C@H]2Nc2nnc(-c3ccccc3)o2)c(F)c1 [Example 4, (3S,4R)-4-(2,6-difluoro-4-methoxyphenyl)-3-[(5-phenyl-1,3,4-oxadiazol-2-yl)amino]pyrrolidin-2-one] was tested. Which EC50 did it give?
Answer: 150 to 1000 nM

Question: How did the EC50 turn out when COc1cc(F)c([C@@H]2CNC(=O)[C@H]2Nc2nnc(-c3ccc(F)c(F)c3)o2)c(F)c1 [Example 5, (3S,4R)-4-(2,6-difluoro-4-methoxyphenyl)-3-{[5-(3,4-difluorophenyl)-1,3,4-oxadiazol-2-yl]amino}pyrrolidin-2-one] was run?
Answer: 150 to 1000 nM

Question: How did the EC50 turn out when COc1cc(F)c([C@@H]2CNC(=O)[C@H]2Nc2nnc(-c3cccnc3)o2)c(F)c1 [Example 6, (3S,4R)-4-(2,6-difluoro-4-methoxyphenyl)-3-{[5-(pyridin-3-yl)-1,3,4-oxadiazol-2-yl]amino}pyrrolidin-2-one] was run?
Answer: 150 to 1000 nM

Question: For COc1cc(F)c([C@@H]2CNC(=O)[C@H]2Nc2nnc(-c3ccc(OC(F)(F)F)cc3)o2)c(F)c1 [Example 7, (3S,4R)-4-(2,6-difluoro-4-methoxyphenyl)-3-({5-[4-(trifluoromethoxy)phenyl]-1,3,4-oxadiazol-2-yl}amino)pyrrolidin-2-one], which EC50 is on record?
Answer: 40 to 150 nM

Question: COc1cc(F)c([C@@H]2CNC(=O)[C@H]2Nc2nnc(-c3ccc(C(F)(F)F)cc3)o2)c(F)c1 [Example 8, (3S,4R)-4-(2,6-difluoro-4-methoxyphenyl)-3-({5-[4-(trifluoromethyl)phenyl]-1,3,4-oxadiazol-2-yl}amino)pyrrolidin-2-one] was tested. Which EC50 did it give?
Answer: ≤ 40 nM

Question: COc1cc(F)c([C@@H]2CNC(=O)[C@H]2Nc2nnc(-c3ccc(C#N)cc3)o2)c(F)c1 [Example 9, 4-(5-{[(3S,4R)-4-(2,6-difluoro-4-methoxyphenyl)-2-oxopyrrolidin-3-yl]amino}-1,3,4-oxadiazol-2-yl)benzonitrile] was tested. Which EC50 did it give?
Answer: 150 to 1000 nM

Question: Which EC50 does the source give for COc1cc(F)c([C@@H]2CNC(=O)[C@H]2Nc2nnc(-c3ccc(C(F)(F)F)nc3)o2)c(F)c1 [Example 10, (3S,4R)-4-(2,6-difluoro-4-methoxyphenyl)-3-({5-[6-(trifluoromethyl)pyridin-3-yl]-1,3,4-oxadiazol-2-yl}amino)pyrrolidin-2-one] here?
Answer: ≤ 40 nM

Question: With COc1cc(F)c([C@@H]2CNC(=O)[C@H]2Nc2nnc(-c3ccc(C)cc3)o2)c(F)c1 [Example 11, (3S,4R)-4-(2,6-difluoro-4-methoxyphenyl)-3-{[5-(4-methylphenyl)-1,3,4-oxadiazol-2-yl]amino}pyrrolidin-2-one] as the molecule, how does the EC50 read?
Answer: 150 to 1000 nM

Question: How did the EC50 turn out when COc1cc(F)c([C@@H]2CNC(=O)[C@H]2Nc2nnc(-c3ccc(F)cc3)o2)c(F)c1 [Example 12, (3S,4R)-4-(2,6-difluoro-4-methoxyphenyl)-3-{[5-(4-fluorophenyl)-1,3,4-oxadiazol-2-yl]amino}pyrrolidin-2-one] was run?
Answer: 40 to 150 nM

Question: How did the EC50 turn out when COc1cc(F)c([C@@H]2CNC(=O)[C@H]2Nc2nnc(-c3ccc(-n4cccn4)cc3)o2)c(F)c1 [Example 13, (3S,4R)-4-(2,6-difluoro-4-methoxyphenyl)-3-({5-[4-(1H-pyrazol-1-yl)phenyl]-1,3,4-oxadiazol-2-yl}amino)pyrrolidin-2-one] was run?
Answer: 150 to 1000 nM

Question: With COc1cc(F)c([C@@H]2CNC(=O)[C@H]2Nc2nnc(-c3ccc(C(F)(F)F)cn3)o2)c(F)c1 [Example 14, (3S,4R)-4-(2,6-difluoro-4-methoxyphenyl)-3-({5-[5-(trifluoromethyl)pyridin-2-yl]-1,3,4-oxadiazol-2-yl}amino)pyrrolidin-2-one] as the molecule, how does the EC50 read?
Answer: 150 to 1000 nM

Question: For COc1cc(F)c([C@@H]2CNC(=O)[C@H]2Nc2nnc(-c3ccc(Cl)cc3F)o2)c(F)c1 [Example 15, (3S,4R)-3-{[5-(4-chloro-2-fluorophenyl)-1,3,4-oxadiazol-2-yl]amino}-4-(2,6-difluoro-4-methoxyphenyl)pyrrolidin-2-one], which EC50 is on record?
Answer: 150 to 1000 nM

Question: Which EC50 does the source give for COc1cc(F)c([C@@H]2CNC(=O)[C@H]2Nc2nnc(-c3ccc(Cl)nc3)o2)c(F)c1 [Example 16, (3S,4R)-3-{[5-(6-chloropyridin-3-yl)-1,3,4-oxadiazol-2-yl]amino}-4-(2,6-difluoro-4-methoxyphenyl)pyrrolidin-2-one] here?
Answer: ≤ 40 nM

Question: For COc1cc(F)c([C@@H]2CNC(=O)[C@H]2Nc2nnc(-c3ccc(C(F)F)cc3)o2)c(F)c1 [Example 17, (3S,4R)-4-(2,6-difluoro-4-methoxyphenyl)-3-({5-[4-(difluoromethyl)phenyl]-1,3,4-oxadiazol-2-yl}amino)pyrrolidin-2-one], which EC50 is on record?
Answer: 40 to 150 nM

Question: For COc1cc(F)c([C@@H]2CN(C)C(=O)[C@H]2Nc2nnc(-c3ccc(Cl)cc3)o2)c(F)c1 [Example 20, (3S,4R)-3-{[5-(4-chlorophenyl)-1,3,4-oxadiazol-2-yl]amino}-4-(2,6-difluoro-4-methoxyphenyl)-1-methylpyrrolidin-2-one], which EC50 is on record?
Answer: ≤ 40 nM

Question: With COc1cc(F)c([C@@H]2CNC(=O)[C@H]2Nc2cc(-c3ccc(OC(F)(F)F)cc3)on2)c(F)c1 [Example 23, (3S,4R)-4-(2,6-difluoro-4-methoxyphenyl)-3-({5-[4-(trifluoromethoxy)phenyl]-1,2-oxazol-3-yl}amino)pyrrolidin-2-one] as the molecule, how does the EC50 read?
Answer: ≤ 40 nM

Question: How did the EC50 turn out when COc1cc(F)c([C@@H]2CNC(=O)[C@H]2Nc2ncc(-c3ccc(Cl)cc3)o2)c(F)c1 [Example 24, (3S,4R)-3-{[5-(4-chlorophenyl)-1,3-oxazol-2-yl]amino}-4-(2,6-difluoro-4-methoxyphenyl)pyrrolidin-2-one] was run?
Answer: 150 to 1000 nM

Question: For COc1cc(F)c([C@@H]2CNC(=O)[C@H]2Nc2nnc(C3CCC(F)(F)CC3)o2)c(F)c1 [Example 25, (3S,4R)-4-(2,6-difluoro-4-methoxyphenyl)-3-{[5-(4,4-difluorocyclohexyl)-1,3,4-oxadiazol-2-yl]amino}pyrrolidin-2-one], which EC50 is on record?
Answer: 150 to 1000 nM

Question: Which EC50 does the source give for COc1cc(F)c([C@@H]2CNC(=O)[C@H]2Nc2nnc(-c3ccc([S+]([O-])C(F)(F)F)cc3)o2)c(F)c1 (stereo partly drawn) [Example 26, (3S,4R)-4-(2,6-difluoro-4-methoxyphenyl)-3-{[5-(4-trifluoromethanesulfinylphenyl)-1,3,4-oxadiazol-2-yl]amino}pyrrolidin-2-one] here?
Answer: 150 to 1000 nM

Question: How did the EC50 turn out when COc1cc(F)c([C@@H]2CNC(=O)[C@H]2Nc2nnc(-c3ccc(SC(F)(F)F)cc3)s2)c(F)c1 [Example 29, (3S,4R)-4-(2,6-difluoro-4-methoxyphenyl)-3-[(5-{4-[(trifluoromethyl)sulfanyl]phenyl}-1,3,4-thiadiazol-2-yl)amino]pyrrolidin-2-one] was run?
Answer: 40 to 150 nM

Question: With COc1cc(F)c([C@@H]2CNC(=O)[C@H]2Nc2nnc(-c3ccc(OC(F)(F)F)cc3)s2)c(F)c1 [Example 30, (3S,4R)-4-(2,6-difluoro-4-methoxyphenyl)-3-({5-[4-(trifluoromethoxy)phenyl]-1,3,4-thiadiazol-2-yl}amino)pyrrolidin-2-one] as the molecule, how does the EC50 read?
Answer: 40 to 150 nM
